Measurements as given in patent US7655392B2, “Quenching methods for red blood cell inactivation process” (priority 2004, dated 2010).
Read-outs that look alike come from different tables or passages of the source.

Legend:
[1] = pH of quencher stock and of RBC mixture; assay type: physicochemical; details: for pH of stock quencher: room temperature
Protocol: The effect of various quenching conditions on the pH of a red blood cell composition was determined for various treatment conditions. The quencher solutions were prepared at a concentration of 600 mM in 8% dextrose monohydrate. […] Glutathione was assessed at 2 mM (acidic) or 20 mM (2 eq. of base). […] The pH of the quencher solution, either unmodified or neutralized, was measured using a standard Epoxy Calomel electrode (Beckman Instruments) at room temperature. […] The samples were mixed and the pH at room temperature was measured using the same electrode as described above.
In these, the appropriate amount of 600 mM stock was added, mixed with an appropriate volume of 8% dextrose to provide the same volume addition to each RBC sample where in one study, with varied glutathione concentrations, the pH was measured after adding glutathione and after adding PIC-1. […] Similar samples were also assessed for the inactivation of S. epidermidis. […] For gel card analysis, after incubation, the RBC were washed in BBS and were diluted in BBS to a final hematocrit of 4%. A 25 μL aliquot of each was mixed with 15 μL of rabbit polyclonal anti-acridine sera diluted either 1:4 or 1:100 in BBS and the mixture was incubated at 37° C. for 30 minutes. The cells were subsequently washed with 1.5 mL BBS. After washing was complete, the cells were mixed with goat anti-rabbit Fab′2 fragment anti H+L chains (1:4 dilution in PBS) and incubated at 37° C. for 30 minutes.

Serratia marcescens = assay type: cell-based; details: Table 5B: 20 mM Cys+2 eq base only, no PIC-1
red blood cells = assay type: cell-based; details: 20 mM Cys+2 eq NaOH only, no PIC-1
Protocol: In another assay, the rabbit polyclonal sera may be reacted with treated red blood cells. After washing off unbound antibody, a FITC labeled goat anti-rabbit Fab′2 fragment (anti H+L chains, Caltag) is added. The binding of FITC label to the red blood cells correlates with the amount of acridine bound to the red blood cell surface, and is assessed by FACScan™ analysis (Becton, Dickinson and Co., NJ). The relative modification of the red blood cells is determined from the FACScan™ mean fluorescence value.
A 20 mL sample of leukoreduced whole blood (Blood Source, Sacramento, Calif.) was centrifuged at 4,100×g for 5 minutes at room temperature in each of four 50 mL centrifuge tubes. The supernatant was removed from each tube to provide red cell concentrate (RCC). […] For each washed RCC, cells were resuspended in 5 mL of the solution used for washing. This is now referred to as the RBC test sample. […] These samples were incubated for 20 hours at room temperature. After incubation, the RBC were washed in BBS (Blood Bank Saline, 0.9% saline, unbuffered, Fisher Scientific) and were diluted to a final hematocrit of 4%. A 25 μL aliquot of each was mixed with 15 μL of rabbit polyclonal anti-acridine sera diluted 1:100 in BBS and the mixture was incubated at 37° C. for 30 minutes. The cells were subsequently washed with 1.5 mL BBS. After washing was complete, the cells were mixed with 50 μL of FITC labeled goat anti-rabbit Fab′2 fragment (1:64 dilution in BBS) and incubated at 37° C. for 30 minutes. […] Note that the quenching improves as glutathione is neutralized with increasing amounts of sodium hydroxide.
The FACScan analysis of the binding of rabbit anti-acridine sera to treated red cells was used to assess a variety of quenching conditions. […] The tables represent data from two different experiments, each with samples treated under standard conditions or with 20 mM neutralized glutathione. […] The data within an experiment provides the relative efficacy of the various treatments. Because the assay may depend on the lot of red blood cells used, the absolute values of mean fluorescence may vary from one study to the next, such that relative values should only be compared within a given experiment. […] Neutralized glutathione at 20 mM results in close to background levels.
An untreated control sample as well as a standard sample (co-addition of 2 mM acidic glutathione with 0.2 mM PIC-1) were also assessed.
Full units of red cell concentrates (Interstate Blood Bank, Inc., Memphis, Tenn.) were leukoreduced. A volume of 200 mL of this RCC (80% hematocrit) was mixed with 94 mL of Erythrosol or 100 mL of Adsol (Baxter Healthcare Corp., Deerfield, Ill.) as control (unit 1). A volume of 20 mL 8% dextrose was used to dissolve PIC-1 (mg) and acid glutathione (mg) and added to one unit to provide 0.2 mM PIC-1 and 2 mM glutathione (unit 2). […] For the glutathione, 1.2 mL of 10 N NaOH was added (2 equivalents). The PIC-1 was mixed with the unit, followed 1 minute later (unit 3) or 5 minutes later (unit 4) by glutathione. For unit 5, neutralized glutathione was mixed first, followed 10 minutes later by the PIC-1. […] All units were mixed by grasping the ends of the blood bag and mixing in a FIG. 8 motion 30 times. These were then incubated at room temperature for 20 hours total. A compound adsorption device (CAD), comprising a polymeric resin contained within a mesh pouch, was used for all but the control sample. This device is intended to remove residual PIC-1, PIC-1 breakdown products, and glutathione from the samples. Samples were incubated for 8 hours, then transferred to a second blood bag containing the CAD and incubated for an additional 12 hours. Following the room temperature incubation, samples were transferred to a refrigerator (4° C.) and stored up to 43 days.

[2] = system: Staphylococcus epidermidis; experiment: Inactivation of Staphylococcus epidermidis in RBC (colony count); details: Table 5C: 20 mM cysteine+1 eq base only, no PIC-1
Protocol: Whole blood (Blood Source, Sacramento, Calif.) was used to prepare a red blood cell (RBC) composition by centrifuging to provide packed RBC (34 mL of approximately 90% hematocrit), then adding 17 mL Erythrosol to a hematocrit of approximately 60%. Erythrosol is a red blood cell additive (Baxter Healthcare Corp., Deerfield, Ill.) that may be prepared by combining sodium citrate dihydrate (7.82 g); sodium acid phosphate dihydrate (0.73 g); sodium phosphate dihydrate (3.03 g); adenine (0.22 g); mannitol (7.74 g); and glucose (9 g) in 1 liter of distilled water. The bacterial preparation was then added ( 1/100th of the total volume) to the RBC/Erythrosol to provide contaminated RBC. The contaminated RBC was divided into several samples and treated according to Table 2, where PIC-1 is β-alanine, N-(acridin-9-yl), 2-[bis(2-chloroethyl)amino]ethyl ester. The PIC-1 and glutathione (Aldrich, St. Louis, Mo.) were dissolved in a solution of 8% dextrose monohydrate at about 15× the desired concentration in the final red blood cell composition when added together, or 30× when added separately. […] For separate addition using 20 mM neutralized glutathione, PIC-1 is prepared by dissolving 7.6 mg in 2.5 mL of 8% dextrose, glutathione is prepared by dissolving 460 mg in 1.9 mL of 8% dextrose and mixing with 0.6 mL of 5N NaOH, then adding 165 μL of each solution to 4.67 mL RBC in the appropriate order. Following treatment, the samples were incubated for 2 hours, and 100 μL of each was serially diluted and plated on LB plates. These were incubated overnight at 37° C. in order to assess bacterial growth. The bacterial titer was determined by counting colonies on the plates and based on the dilution of the plate, the titer was determined. For example, with 10-fold serial dilutions, 30 colonies counted on the 5th dilution of the original solution, where 0.1 mL are plated, would indicate an initial titer of (30×10^5)/0.1=3×10^7, or 7.47 log. […] Note that for most samples in Table 2A the PIC-1 and glutathione were formulated together. […] The study was repeated with sequential addition of the two components, as indicated in Table 2B (time delay of 0 indicates they were added in the same solution).
Additional studies were done using S. epidermidis, where the overnight culture was used without dilution. […] PIC-1 is at 0.2 mM in all samples.
For these samples, the NaOH stock was prepared at 10N and appropriate volumes of the various components were used following the procedures above. Standard conditions and/or 20 mM neutralized glutathione (GSH) were run for comparison.

[3] = 600 mM in 8% dextrose + 1 eq. base
[4] = Table 10: RBC + 20 mM quencher + 1 eq. base + 0.2 mM PIC-1
[5] = Table 10: RBC + 20 mM quencher + 2 eq. base + 0.2 mM PIC-1

| Compound | pH of stock quencher [1, 3] | pH of final mixture [1, 4] | Log S. marcescens reduction (Serratia marcescens) [Log] | Log S. marcescens titer (Serratia marcescens) [Log] | mean fluorescence (red blood cells; Table 9A: control) | mean fluorescence (red blood cells; Table 9B: control) | pH of final mixture [1, 5] | pH of final mixture ([1]; Table 10: RBC + 20 mM quencher, no base + 0.2 mM PIC-1) | Log S. epidermidis reduction [2] [Log] | Log S. epidermidis titer [2] [Log] | pH of stock quencher ([1]; 600 mM in 8% dextrose + 2 eq. base) |
| --- | --- | --- | --- | --- | --- | --- | --- | --- | --- | --- | --- |
| CC(=O)N[C@@H](CS)C(=O)O [N-acetyl cys, N-acetyl cysteine] | 6 | 6.7 | – | – | – | – | – | – | – | – | – |
| N[C@@H](CS)C(=O)O [cysteine] | – | 7.4 | 0.3 | 7.3 | 1.9 | 1.99 | 7.8 | 6.5 | 0.1 | 7.1 | – |
| CSCC[C@H](N)C(=O)O [methionine, reference compound] | 11.2 | 7.5 | – | – | – | – | 8 | – | – | – | 13.1 |
